Assay results taken from patent US11446317B2, “Inositol phosphate-containing composition” (OTSUKA PHARMACEUTICAL CO., LTD., priority 2017, dated 2022).
Values joined by “and” are separate entries in the source; they are usually repeats but may differ in a detail not shown here. Identical values can stand only once.

Columns and labels:
xanthine oxidase = conditions: Non-Patent Document 4, cited from earlier work
healthy adults [1] = experiment: High intake test (5 weeks, 3 to 5 bottles per day) in healthy adults; format: in vivo, human; conditions: for change in serum iron level: high intake test
Experimental: The subjects (48 healthy adults: 20 to 65 years of age, 16 men, 16 premenopausal women, and 16 postmenopausal women) ingested 5 bottles per day (or 3 to 5 bottles per day depending on the subject's capacity) of test beverage. The test beverage contains 600 mg of phytic acid per bottle (50 mL). The duration of intake was 5 weeks. The first week being a time period to determine each subject's tolerable volume of test beverage, during which time the subjects ingested test beverages while increasing one bottle daily (Up to 5 bottles per day). If 5 bottles/day could not be taken due to taste, volume, etc., the intake volume was determined by each subject, and the intake volume on day 7 was taken as the tolerable volume for each subject, and each subject ingested this tolerable volume (3 to 5 bottles per day) during the remaining study period (4 weeks). Before and 3 weeks, 5 weeks, and 7 weeks (i.e. 2 weeks after the last intake) after the start of the intake, blood pressure of fasting was measured and blood of fasting was collected. The collected blood was measured for each test item by an analysis contractor. Tests for blood pressure, blood glucose, AST, and serum iron compared to 0 week were performed with a paired t-test, and tests for 1, 25-(OH)2-D compared to 0 week were performed with one-way ANOVA followed by Dunnet's multiple comparison method. A two-sided test was performed with a significance level of 5%. The analysis included 44 subjects excluding 2 subjects who withdrew their consent and 2 subjects who were unable to take more than 3 bottles of the test beverage.

[2] = molecular target: T1, Phosphatase, Alkaline, Calf Intestine (Bos taurus, UniProt P19111); experiment: Alkaline phosphatase inhibition (IMP to inosine); format: biochemical; conditions: sample solution 10 mg/mL, pH 6.2 to 6.4, 37° C. 30 minutes
T1 construct: purchased Merck
Experimental: Phosphatase, Alkaline, Calf Intestine (Merck) dissolved in the assay buffer (2.37% aqueous solution of Trizma® maleate (Sigma-Aldrich)) at 5.0 U/mL was used as the enzyme solution.
Inosine monophosphate (IMP) (Sigma-Aldrich) dissolved in the assay buffer at 9 mM was used as the substrate solution.
Phytic acid and the assay buffer were mixed, and the pH was adjusted to 6.2 to 6.4 with sodium hydroxide to obtain a sample solution (10 mg/mL). The control solution was prepared by adjusting the assay buffer to pH 6.2 to 6.4 with sodium hydroxide.
(§1) Enzymatic reaction was performed using a 96 well plate (Thermo Fisher Scientific) in the following manner.
The sample solution or control solution (100 μL/well), the substrate solution (100 μL/well), and the enzyme solution (100 μL/well) were added, and the enzyme reaction was performed at 37° C. for 30 minutes. A 20 μL aliquot of the reaction solution was transferred to multi-screen FITS HV (Merck Millipore), and the reaction was stopped by adding the stop solution (0.33 M HClO4, 180 μl/well). Centrifuge (1080×g for 10 minutes at room temperature) was performed, and the filtrate was subjected to high performance liquid chromatography (HPLC) to determine the amounts of inosine monophosphate and inosine.
The analytical conditions of HPLC are shown below.
Detector: SPD-M 30 A (Shimadzu Corporation) […]

healthy adults [3] = experiment: Low intake test (12 weeks, 1 bottle per day) in healthy adults; format: in vivo, human; conditions: for change in serum iron level: low intake test
Experimental: Subjects (39 healthy adults: 20 to 65 years of age, 13 men, premenopausal women, and 13 postmenopausal women) ingested 1 bottle of a test beverage per day for 12 weeks. The test beverage contains 600 mg of phytic acid per bottle (50 mL). Before and 4 weeks, 8 weeks, 12 weeks, and 14 weeks (i.e. 2 weeks after the last intake) after the start of the intake, blood of fasting was collected. The collected blood was measured for each test item by an analysis contractor. Tests for each endpoint compared to 0 week were performed with a paired t-test. Two-sided test was performed with a significance level of 5%.

[4] = test system: alkaline phosphatase and 5′nucleotidase (rat small intestine powder); experiment: Purine nucleotide metabolism inhibition (IMP to inosine) using rat small intestine powder; format: biochemical; conditions: pH 6.2 to 6.4, 37° C. 30 minutes
Experimental: The rat small intestine powder contains alkaline phosphatase and 5′nucleotidase as the main digestive enzymes. The inhibition of metabolism of purine nucleotides to purine nucleosides by phytic acid was investigated.
A 100 mg/mL of solution of rat small intestine powder (Clare Japan, Inc.) in the assay buffer (2.37% aqueous solution of Trizma® maleate (Sigma-Aldrich)) was used as the enzyme solution. Inosine monophosphate (IMP) (Sigma-Aldrich) (9 mM) in the assay buffer was used as the substrate solution.
Phytic acid and the assay buffer were mixed, and the pH was adjusted to 6.2 to 6.4 with sodium hydroxide to obtain the sample solutions of each concentration. The control solution was prepared by adjusting the assay buffer to pH 6.2 to 6.4 with sodium hydroxide.
as §1
The sample solution or control solution (100 μL/well), the substrate solution (100 μL/well), and the enzyme solution (100 μL/well) were added, and the enzyme reaction was performed at 37° C. for 30 minutes. A 20 μL aliquot of the reaction solution was transferred to multi-screen HTS HV (Merck Millipore), and the reaction was stopped by adding the stop solution (0.33 M HClO4, 180 μL/well). […]

[5] = ingestion of 1,400 mg of sodium phytate (1,000 mg as phytic acid); cited from earlier work

T1 sequence (P19111 20-506): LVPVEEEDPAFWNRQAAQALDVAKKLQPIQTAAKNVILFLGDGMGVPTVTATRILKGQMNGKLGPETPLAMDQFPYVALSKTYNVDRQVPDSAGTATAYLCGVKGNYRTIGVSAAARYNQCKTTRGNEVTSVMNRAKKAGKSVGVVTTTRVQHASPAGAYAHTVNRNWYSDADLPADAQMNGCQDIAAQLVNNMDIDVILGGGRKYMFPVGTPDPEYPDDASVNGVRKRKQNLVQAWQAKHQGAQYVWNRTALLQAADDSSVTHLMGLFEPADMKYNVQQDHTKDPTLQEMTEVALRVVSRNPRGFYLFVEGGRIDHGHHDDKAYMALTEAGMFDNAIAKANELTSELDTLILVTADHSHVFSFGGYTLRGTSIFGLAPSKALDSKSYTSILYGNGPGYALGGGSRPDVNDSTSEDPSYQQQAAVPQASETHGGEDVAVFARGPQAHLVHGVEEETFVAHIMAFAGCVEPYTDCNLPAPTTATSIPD

In the case of O=P(O)(O)O[C@H]1[C@H](OP(=O)(O)O)[C@@H](OP(=O)(O)O)[C@H](OP(=O)(O)O)[C@@H](OP(=O)(O)O)[C@H]1OP(=O)(O)O [phytic acid], the “IC50 of inhibition of xanthine oxidase activity (conversion of xanthine to uric acid)” value (xanthine oxidase) is listed as roughly 19.8 mg/mL, the IC50 (xanthine oxidase; read-out: IC50 of inhibition of xanthine oxidase activity (conversion of xanthine to uric acid)) is listed as roughly 30 mM and the “change in 1,25-(OH)2-D level” value (healthy adults [1]; 5 weeks after ingestion compared with before ingestion) is listed as “significant increase”. For the same molecule, the “change in diastolic blood pressure” value (healthy adults [1]; high diastolic blood pressure group (86.3 or more at 0 week)) was “significant decrease”, the “change in serum iron level” value (healthy adults [1]; high level group (117 or more at 0 week)) was “significant decreases” and the “change in serum iron level” value (healthy adults [1]; low level group (79 or less at 0 week)) was “significant rises”. For the same molecule, the “change in serum iron level” value (healthy adults [1]; middle level group (79 to 117 at 0 week)) was “no large changes”, the “change in AST level” value (healthy adults [1]; high level group (21 or more at 0 week), 3, 5, and 7 weeks compared with before ingestion) was “significant decreases” and the “change in systolic blood pressure” value (healthy adults [1]; high systolic blood pressure group (126 or more at 0 week)) was “significant decrease”. The “change in diastolic blood pressure” value (healthy adults [1]; low diastolic blood pressure group (73.8 or less at 0 week)) was “no change”, the “change in AST level” value (healthy adults [1]; low level group (17 or less at 0 week), 3 weeks compared with before ingestion, change not large) was “significant increase” and the “change in systolic blood pressure” value (healthy adults [1]; low systolic blood pressure group (115.5 or less at 0 week)) was “no change”. The “change in diastolic blood pressure” value (healthy adults [1]; middle diastolic blood pressure group (73.8 to 86.3 at 0 week)) was “no change”, the “change in systolic blood pressure” value (healthy adults [1]; middle systolic blood pressure group (115.5 to 126 at 0 week)) was “significant change but it was not large” and the “inhibition of metabolism of inosine monophosphate to inosine by alkaline phosphatase” value [2] was “inhibits the conversion of purine nucleotides into purine nucleosides”. The “change in HbA1c level” value (healthy adults [3]; high HbA1c level group (5.5 or more at 0 week)) was “significant decrease”, the “change in blood glucose level” value (healthy adults [3]; high blood glucose level group (86 or more at 0 week)) was “significant decrease” and the “change in serum iron level” value (healthy adults [3]; high level group (132 or more at 0 week)) was “significant decreases”. For the same molecule, the “change in serum iron level” value (healthy adults [3]; low level group (90 or less at 0 week)) was “significant rises”, the “change in serum iron level” value (healthy adults [3]; middle level group (90 to 132 at 0 week)) was “no large changes” and the “inhibition of metabolism of inosine monophosphate to inosine” value [4] was “inhibits the conversion of purine nucleotides into purine nucleosides”.

For O=P([O-])([O-])O[C@H]1[C@H](OP(=O)([O-])O)[C@H](OP(=O)([O-])[O-])[C@H](OP(=O)([O-])O)[C@@H](OP(=O)([O-])[O-])[C@@H]1OP(=O)([O-])O.[Na+].[Na+].[Na+].[Na+].[Na+].[Na+].[Na+].[Na+].[Na+] [sodium phytate], the “blood phytic acid concentration at the maximum” value [5] is listed as 0.12 mg/L and 0.181 μM.
